Measured values: the supplement of paper PMC10307832

Assays:
Assay in all cases: relative viability (nuclei count vs DMSO), 5 days (fraction); higher = more cells survive
[1] = compound: C1=CC=C2C(=C1)C=CC(=C2SSC3=C(C=CC4=CC=CC=C43)O)O [IPA-3] + CC(=O)c1c(C)c2cnc(Nc3ccc(N4CCNCC4)cn3)nc2n(C2CCCC2)c1=O [Palbociclib] (partner 0.5 µM)
How it was run: (§1)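 Medians of duplicate plates are given as relative viability. That measure is the nuclei count in treated wells divided by the count in vehicle wells. Counts were taken on 4× images of lung cancer cell lines in 1536-well plates, 5 days after pin-tool dosing the day after seeding with one drug alone or a fixed anchor-drug dose plus five library-drug doses (not always all listed) in √10 steps.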

[2] = compound: Cc1ccc(-n2nc(C(C)(C)C)cc2NC(=O)Nc2ccc(OCCN3CCOCC3)c3ccccc23)cc1 [Doramapimod] + CC(C)C[C@H](NC(=O)[C@H](Cc1ccccc1)NC(=O)c1cnccn1)B(O)O [Bortezomib] (partner 0.002 µM)
How it was run: as §1

[3] = compound: Cc1ccc(-n2nc(C(C)(C)C)cc2NC(=O)Nc2ccc(OCCN3CCOCC3)c3ccccc23)cc1 [Doramapimod] + COc1cc2c(Oc3ccc(NC(=O)C4(C(=O)Nc5ccc(F)cc5)CC4)cc3F)ccnc2cc1OCCCN1CCOCC1 [Foretinib] (partner 0.25 µM)
How it was run: as §1

[4] = compound: Cc1ccc(-n2nc(C(C)(C)C)cc2NC(=O)Nc2ccc(OCCN3CCOCC3)c3ccccc23)cc1 [Doramapimod] + CS(=O)(=O)CCNCc1ccc(-c2ccc3ncnc(Nc4ccc(OCc5cccc(F)c5)c(Cl)c4)c3c2)o1 [Lapatinib] (partner 2 µM)
How it was run: as §1

Cell Line	relative viability ([1]; first compound 0.2 µM)	relative viability ([1]; first compound 0.6325 µM)	relative viability ([1]; first compound 2 µM)	relative viability ([1]; first compound 6.325 µM)	relative viability ([1]; first compound 20 µM)	relative viability ([2]; first compound 0.02 µM)	relative viability ([2]; first compound 0.06325 µM)	relative viability ([2]; first compound 0.2 µM)	relative viability ([2]; first compound 0.6325 µM)	relative viability ([2]; first compound 2 µM)	relative viability ([3]; first compound 0.02 µM)	relative viability ([3]; first compound 0.06325 µM)	relative viability ([3]; first compound 0.2 µM)	relative viability ([3]; first compound 0.6325 µM)	relative viability ([3]; first compound 2 µM)	relative viability ([4]; first compound 0.02 µM)	relative viability ([4]; first compound 0.06325 µM)	relative viability ([4]; first compound 0.2 µM)	relative viability ([4]; first compound 0.6325 µM)	relative viability ([4]; first compound 2 µM)
201T	0.363	0.38	0.391	0.342	0.388	1.16	1.16	1.09	1.29	1.16	1.01	1.03	1.1	1.41	0.974	1.05	1.11	0.955	1.11	0.971
A549											0.91	1	0.992	1.06	0.875	0.827	0.989	0.932	1.24	0.895
A-427	0.531	0.499	0.511	0.515	0.52	0.907	1.05	1		1.12	1.02	1.15	1.12		0.997	1.03	1.17	1.09		1.04
ABC-1	0.733	0.81	0.392	0.748	0.851	0.297	0.302	0.262	0.345	0.296	1.39	1.11	1.05	0.919	0.881	1.03	1.15	1.17	1.54	1.35
BEN	0.432	0.471	0.43	0.532	0.457	0.69	0.785	0.896	0.52	0.684	0.663	0.639	0.603	0.469	0.676	0.728	0.687	0.746	0.475	0.717
CAL-12T	0.718	0.342	0.404	0.28	0.421	1.01	1.11	1.16	1	0.818	1.11	1.15	1.03	1.1	0.983	0.674	0.557	0.676	0.611	0.623
COR-L23	0.283	0.301	0.316	0.266	0.118	1.12	0.914	0.962	0.997	0.969	0.945	0.926	0.966	1.01	0.855	1.09	1.1	0.99	1.01	0.91
COR-L 105	0.409	0.275	0.405	0.393	0.399	0.848	0.772	0.959	0.807	0.779	1.03	0.834	1.04	1.34	0.917	0.368	0.385	0.37	0.336	0.367
Calu-6						1.05	1.03	1.02	1.11	1.03	0.903	0.914	0.941	0.942	0.919	1.06	1.13	1.17	1.19	0.985
ChaGo-K-1	0.952	0.824	0.923	0.955	1.02	1.04	1.29	1.29		0.646	0.922	0.907	0.892	0.949	0.831					
EBC-1						0.549	0.563	0.473	0.684	0.549	0.117	0.102	0.0979	0.0935	0.1	0.255	0.198	0.17	0.209	0.197
EKVX	0.352	0.418	0.34	0.456	0.409	1.04	0.997	1.08	0.967	1.11	0.831	0.829	0.789	0.746	0.764	0.194	0.189	0.202	0.251	0.59
EMC-BAC-2	0.537	0.509	0.527	0.516	0.532	1.12	1.12	1.03	1.15	0.961	0.999	1.02	1.09	1.23	1	0.918	0.935	0.871	1.01	0.715
EPLC-272H	0.31	0.38	0.316	0.304	0.327	0.873	0.779	0.848	0.881	0.655	0.776	0.658	0.788	0.934	0.57	0.942	0.983	0.945	0.979	0.745
H3255	0.306	0.308	0.29	0.298	0.272	0.788	0.883	0.833	0.619	0.668	0.844	0.883	0.945	0.637	0.726	0.234	0.233	0.244	0.241	0.267
HARA	0.255	0.24	0.255	0.27	0.235	1.15	1.03	1.14	1.04	0.994	0.88	0.841	0.767		0.746	0.606	0.713	0.794	0.968	0.637
HCC-15	0.889	0.78	0.462	0.697	0.704	1.02	1.05	1.04	0.801	0.907	1.07	1.01	0.964		0.953	0.864	0.962	0.84	0.521	0.752
HCC-44	0.966	1.02	0.979	0.948	0.934	0.941	1.01	0.814	0.86	0.833						1.1	1.05	1.07	0.837	0.963
HCC-78	0.53	0.435	0.485	0.486	0.484	0.334	0.49	0.432	0.642	0.457	0.542	0.575	0.54	0.545	0.539	0.745	0.936	0.79	0.837	0.885
HCC-366	0.479	0.382	0.374	0.378	0.474	1.02	1	1.09	1.14	1.01	0.617	0.874	0.899	0.876	0.821	1.08	1.08	1.14	1.03	1.03

Cell Line	relative viability ([1]; first compound 0.2 µM)	relative viability ([1]; first compound 0.6325 µM)	relative viability ([1]; first compound 2 µM)	relative viability ([1]; first compound 6.325 µM)	relative viability ([1]; first compound 20 µM)	relative viability ([2]; first compound 0.02 µM)	relative viability ([2]; first compound 0.06325 µM)	relative viability ([2]; first compound 0.2 µM)	relative viability ([2]; first compound 0.6325 µM)	relative viability ([2]; first compound 2 µM)	relative viability ([3]; first compound 0.02 µM)	relative viability ([3]; first compound 0.06325 µM)	relative viability ([3]; first compound 0.2 µM)	relative viability ([3]; first compound 0.6325 µM)	relative viability ([3]; first compound 2 µM)	relative viability ([4]; first compound 0.02 µM)	relative viability ([4]; first compound 0.06325 µM)	relative viability ([4]; first compound 0.2 µM)	relative viability ([4]; first compound 0.6325 µM)	relative viability ([4]; first compound 2 µM)
IA-LM						0.842	0.757	0.795	0.92	0.656	0.933	1.04	1.11	1.17	0.729	0.897		0.841	0.763	0.669
LCLC-103H	0.496	0.498	0.485	0.438	0.492	1.19	0.986	1.04	1.2	1.03	0.627	0.691	0.598	0.857	0.73					
LK-2	0.847	0.643	0.709	0.818	0.706						1.04	1.04	0.919	1.05	0.925	0.972	0.873	0.904	0.68	0.754
NCI-H358	0.141	0.117	0.153	0.14	0.157						0.579	0.563	0.682	0.826	0.63	0.508	0.426	0.472	0.571	0.443
NCI-H441	0.244	0.213	0.198	0.169	0.185	0.308		0.522	0.362	0.266	1.02	0.654	0.909		0.842					
NCI-H522	1.16	1.14	0.893	1.18	1.31															
NCI-H596						0.994	1.13	1.21	1.24	1.02	0.907	0.766	1.01	0.782	0.855	1.03	1.15	1.14	1.33	1.07
NCI-H1299						1.03	1.09	1.04	1.06	1.05	1.07	1.09	1.15	1.04	1.01	0.991	0.952	0.956	0.972	0.925
NCI-H1395	0.681	0.524	0.634	0.608	0.61						0.948	0.925	0.991	0.991	0.933	1.38	1.13	1.05	0.913	0.818
NCI-H1563						0.871	0.88	0.993	1.17	0.873	0.847	1	0.962	0.966	1.08	0.935	0.923	1.04	0.681	0.907
NCI-H1623											0.95	0.791	0.86	0.743	0.746					
NCI-H1648	0.222	0.223	0.248	0.263	0.229															
NCI-H1703						0.305	0.208	0.226	0.365	0.218	0.297	0.316	0.4	0.336	0.342	1.11	0.983	0.949	0.987	0.716
NCI-H1792	0.684	0.658	0.662	0.677	0.731	0.946	0.952	0.948	1.05	0.831						0.898	0.986	0.909	0.859	0.858
NCI-H1793	0.345	0.288	0.311	0.318	0.371						0.618	0.752	0.822	0.865	0.597	0.514	0.89	0.515	0.678	0.82
NCI-H1944	0.333	0.326	0.389	0.384	0.334						0.782	0.918	0.883	0.957	0.715	0.761	0.823	0.722	0.963	0.585
NCI-H2170	0.447	0.389	0.364	0.334	0.441						0.996	0.985	1	1.05	1.01	0.298	0.285	0.259	0.316	0.259
NCI-H2342	0.6	0.479	0.553	0.57	0.575						0.91	1.03	0.975	1.29	1.13					
SK-MES-1	0.326	0.308	0.332	0.277	0.238						0.965	0.864	0.773	1.04	0.816	0.455	0.453	0.389	0.451	0.376
SW 900	0.536	0.518	0.545	0.49	0.587						0.557	0.933	0.877	1.11	0.892					
